Experimental data published in article PMC7341468 (BMC Pharmacology & Toxicology, 2020).

How the values were obtained:
[1] = test system: methicillin-resistant Staphylococcus aureus (MRSA)
Method: This retrospective study was conducted between June 2015 and May 2019, and was approved by the Institutional Review Board of Hyogo College of Medicine (No. 3266). […] The analysis of Cmin and the safety population included all eligible patients.

MRSA isolates = details: all MRSA isolates; microdilution, CLSI M02 and M07

How did the “Clinical success at the end of the therapy” value ([1]; all patients of the clinical efficacy population, 55 of 76 patients) turn out when teicoplanin was run?
Its value is 72.4%.

What about the “Crude odds ratio (95% CI) for early clinical response” value ([1]; factor: Enhanced high dose loading regimen, univariate analysis) of the same substance?
The value was 0.90 (0.31–2.63).

And the “Adjusted odds ratio (95%CI) for early clinical response” value ([1]; human, in vivo)?
Its value is 3.95 (1.25–12.53).

What about the “Teicoplanin MICs” value (MRSA isolates) of the same substance?
The value was ≤ 2 µg/mL.
